In patent US20110195111A1, “AQUEOUS COMPOSITIONS AND METHODS” (NATIVIS, INC., priority 2009, published 2011):

Tested on: U-87 glioblastoma cells
Test: U-87 glioblastoma flank tumor growth in mice
Type: in vivo
Settings: U-87 flank tumors in mice, 24-day period; untreated about 650 mm^3 (FIG. 11)
Procedure: The ability of water exposed to a taxane signal to inhibit a glioblastoma tumor in an animal model was investigated. In this study, nine groups of 8 mice were each injected in the right flank with 7.355×10^6 U-87 glioblastoma cells, and treatment with the various modalities was begun either one day after inoculating the animals with the cells, or when the tumors reached 75-100 mm^3.
Paclitaxel was initially dissolved in a 1:1 v/v mixture of CremaphorEL and ethanol and stored at 4° C. Final dilution of the drug to a concentration of 1.5 mg/ml was made with 0.9% NaCl immediately before use. In Groups 3 and 4, the paclitaxel was administered by intravenous injection into the tail vein at a dose of 15/mg/kg animal weight on each of five consecutive days. The actual volume administered to each animal was about 0.2 ml of the above paclitaxel formulation.
Animals in Groups 5 and 6 received 20 ml/kg (or about 0.5 ml) of water exposed to taxane signal prepared as described in Section VII, with the Range 1 magnetic field. […]
For all groups, tumor volumes were measured every other day by serial caliper measurements to determine tumor width and length, and calculating an approximate tumor volume from the formula: Tumor volume=(length×width^2)/2.

## CC(=O)O[C@H]1C(=O)[C@@]2(C)[C@H]([C@H](OC(=O)c3ccccc3)[C@]3(O)C[C@H](OC(=O)[C@H](O)[C@@H](NC(=O)c4ccccc4)c4ccccc4)C(C)=C1C3(C)C)[C@]1(OC(C)=O)CO[C@@H]1C[C@@H]2O [paclitaxel]
  increase in tumor volume over the study period, untreated versus treated animals: more than twice as high in untreated
